Where two headings read alike, the source gives them in different places. Numbered stars: 1 amine (or outer) side, 2 acyl side, 3 side chain; on linkers, the order of the positions; unused ones are H or OH. Bridge positions count the residues as written; N and C are the ends. Side chains are listed from the residue outwards. Peptide text beside a SMILES is read from it. * marks the point of attachment. C20 diacid = O=C(O)CCCCCCCCCCCCCCCCCCC(=O)*; γGlu = O=C(O)[C@H](CCC(=O)[*:2])N[*:1]

Results on three compounds are retold here after article PMC11284788, “NN1213 – A Potent, Long-Acting, and Selective Analog of Human Amylin” (Journal of Medicinal Chemistry, 2024).

Assay [1] has as its target T1, hCTR (Homo sapiens, UniProt P30988).
T1 sequence (P30988 25-474): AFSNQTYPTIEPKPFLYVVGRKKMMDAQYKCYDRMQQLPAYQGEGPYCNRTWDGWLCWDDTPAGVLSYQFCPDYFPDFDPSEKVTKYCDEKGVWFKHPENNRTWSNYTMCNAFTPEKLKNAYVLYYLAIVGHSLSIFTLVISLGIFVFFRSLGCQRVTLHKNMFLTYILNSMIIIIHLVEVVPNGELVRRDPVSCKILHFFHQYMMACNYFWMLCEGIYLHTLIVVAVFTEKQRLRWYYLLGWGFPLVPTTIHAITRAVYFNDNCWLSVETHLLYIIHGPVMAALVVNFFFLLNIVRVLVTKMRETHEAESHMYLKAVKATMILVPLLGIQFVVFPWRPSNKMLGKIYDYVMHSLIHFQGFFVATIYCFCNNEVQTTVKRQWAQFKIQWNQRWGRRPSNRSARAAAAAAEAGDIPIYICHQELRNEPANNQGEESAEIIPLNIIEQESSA
The assay is described as follows: cAMP-responsive element luciferase reporter assay, human CTR. It counts as cell-based. The conditions noted are these: luciferase (human receptor assay).

The target of assay [2] is T2, rCTR (Rattus norvegicus, UniProt P32214).
T2 construct: expressed in transfected cells; host or cells: BHK tk-ts 13, transient (FuGENE 6)
T2 sequence (P32214 25-479 isoform P32214-2 limits assumed): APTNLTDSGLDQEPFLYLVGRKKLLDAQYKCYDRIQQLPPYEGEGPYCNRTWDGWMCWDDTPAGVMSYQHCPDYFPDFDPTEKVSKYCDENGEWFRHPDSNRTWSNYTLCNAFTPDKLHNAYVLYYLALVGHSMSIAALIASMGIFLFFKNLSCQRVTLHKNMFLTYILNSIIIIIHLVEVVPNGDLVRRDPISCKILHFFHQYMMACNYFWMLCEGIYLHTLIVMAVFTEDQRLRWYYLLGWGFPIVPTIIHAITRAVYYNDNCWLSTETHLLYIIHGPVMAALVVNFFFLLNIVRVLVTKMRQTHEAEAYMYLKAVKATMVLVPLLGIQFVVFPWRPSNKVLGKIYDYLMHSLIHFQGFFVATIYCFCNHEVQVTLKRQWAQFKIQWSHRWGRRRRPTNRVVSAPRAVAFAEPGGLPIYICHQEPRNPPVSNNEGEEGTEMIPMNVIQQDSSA
The experiment in a line: scintillation proximity binding assay, rCTR membranes. The protocol: (§1) The apparent binding affinities were determined using a scintillation proximity assay with beads from PerkinElmer and cell membranes containing the AMY3R or CTRs. […] Membranes were harvested and membranes were prepared and kept at −80 °C until use. The assay was performed in a 384-well Optiplate (PerkinElmer). Membranes were mixed with scintillation proximity assay beads in a 1:1 ratio. […] Samples were analyzed on a TopCounter (Packard). The IC50 values were calculated using GraphPad Prism. See Supporting Information S7: SAR Screening Assay Methods (Binding Assays (Human and Rat)) for more information.
(§2) Binding Assays (Human and Rat). Brief descriptions of the methods used to determine binding affinities for SAR analysis are described below. Curves and IC50 values were plotted and calculated in GraphPad Prism using nonlinear regression (one site binding competition analysis), with pIC50 values […]
(§3) values were used to calculate the binding affinity ratios in order to express the selectivity of compounds for the AMY3R versus the CTR.
(§4) CTR Binding Assay. The binding assay was performed using scintillation proximity assay (SPA) beads (RPNQ0001) from PerkinElmer and cell membranes containing either the hCTR or rCTR. BHK […]
(§5) Membranes were prepared in the following way: the cells were rinsed with PBS and incubated with Versene for approximately 5 min before harvesting. The cells were flushed with PBS and the cell-suspension was centrifuged for 5 min at 1000 rpm. Cells were homogenized (Ultra Turrax) in a buffer […]
(§6) containing 20 mM Na-HEPES and 0.1 mM EDTA (pH 7.4, buffer 2). The resulting pellet was re-suspended in buffer 2 and protein concentration was measured (BCA protein assay, Pierce). The homogenate was kept cold during the whole procedure. The membranes were stored at –80 °C until […]
(§7) The binding assay was performed in a 384-well Optiplate (PerkinElmer) in a total volume of 40 μL.
(§8) Membranes were mixed with SPA beads in a 1:1 ratio. […]
(§9) mg/well. Test compounds were dissolved in DMSO and further diluted in assay buffer (50 mM HEPES, pH 7.4, 1 mM CaCl2, 5 mM MgCl2, 0.1% ovalbumin, and 0.02% Tween-20).
(§10) Calcitonin (NEX422 PerkinElmer) was dissolved in assay buffer and added to the Optiplate at a final […]
(§11) prior to centrifugation (1500 rpm, 10 min). Samples were analyzed on TopCounter (Packard).

Assay [3] deals with T1, hCTR. The assay is described as follows: scintillation proximity binding assay, hCTR membranes. Also noted: expressed in transfected cells; host or cells: BHK tk-ts 13, transient (FuGENE 6); membranes for the SPA, whole cells for the species-specific assays. The protocol: as §1, §2, §3, §4, §5, §6, §7, §8, §9, §10, §11
For assay [4], the target named is T3, rat AMY3R (Rattus norvegicus, UniProt P32214+Q9JJ73).
T3 construct: expressed in transfected cells; host or cells: BHK tk-ts 13, transient co-transfection (FuGENE 6)
T3 sequence (P32214 25-479 isoform P32214-2 limits assumed): T2 sequence (P32214 25-479 isoform P32214-2 limits assumed)
T3 sequence (Q9JJ73 23-147 partner): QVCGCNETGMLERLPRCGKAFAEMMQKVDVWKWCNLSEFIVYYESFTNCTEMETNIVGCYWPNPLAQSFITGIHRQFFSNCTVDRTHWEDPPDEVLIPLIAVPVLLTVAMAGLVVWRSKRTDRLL
The assay is described as follows: cAMP FlashPlate assay, rat AMY3R. Type of assay: cell-based. The note with it: for EC50: cAMP (rat receptor assay).

The target in assay [5] is T4, rat CTR (Rattus norvegicus, UniProt P32214).
T4 construct: expressed in transfected cells; host or cells: BHK tk-ts 13, transient (FuGENE 6)
T4 sequence (P32214 25-479 isoform P32214-2 limits assumed): T2 sequence (P32214 25-479 isoform P32214-2 limits assumed)
The experiment in a line: cAMP FlashPlate assay, rat CTR. Type of assay: cell-based. The conditions noted are these: cAMP (rat receptor assay).

Setting [6] is: Tables S12 and S14, read-out: hCTR pEC50 (converted).
The mark [7] stands for this setting: BHK cells stably expressing hCTR and CRE-luciferase, 3 h, 37 °C, 10% FBS, read-out: hCTR EC50.
[8] abbreviates: SPA binding assay, Tables S13 and S15, read-out: rCTR pIC50 (converted).
Setting [9] is: SPA, BHK cell membranes, 125I-Calcitonin 75 pM, 120 min 25 °C, read-out: rCTR IC50.
Setting [10] is: SPA binding assay, Tables S13 and S15, read-out: hCTR pIC50 (converted).
Setting [11] is: SPA, BHK cell membranes, 125I-Calcitonin 75 pM, 120 min 25 °C, read-out: hCTR IC50.
[12] abbreviates: SPA binding assay, Tables S13 and S15.

On to `CC(C)C[C@H](NC(=O)[C@H](CCCNC(=N)N)NC(=O)[C@H](CCC(N)=O)NC(=O)[C@@H](NC(=O)[C@H](C)NC(=O)[C@@H]1CSSC[C@H](NC(=O)[C@@H](N)CCCCNC(=O)CC[C@H](NC(=O)CC[C@H](NC(=O)CCCCCCCCCCCCCCCCCCC(=O)O)C(=O)O)C(=O)O)C(=O)N[C@@H](CC(N)=O)C(=O)N[C@@H]([C@@H](C)O)C(=O)N[C@@H](C)C(=O)N[C@@H]([C@@H](C)O)C(=O)N1)[C@@H](C)O)C(=O)N[C@@H](C)C(=O)N[C@@H](CC(=O)O)C(=O)N[C@@H](Cc1ccccc1)C(=O)N[C@@H](CC(C)C)C(=O)N[C@@H](CCCNC(=N)N)C(=O)N[C@@H](Cc1c[nH]cn1)C(=O)N[C@@H](CO)C(=O)N[C@@H](CO)C(=O)N1CCC[C@H]1C(=O)N[C@@H](CC(N)=O)C(=O)N[C@@H](Cc1ccccc1)C(=O)NCC(=O)N[C@@H](C)C(=O)N1CCC[C@H]1C(=O)N[C@@H](CC(C)C)C(=O)N[C@@H](CO)C(=O)N[C@@H](CO)C(=O)N[C@H](C(=O)N[C@@H](CC(N)=O)C(=O)N[C@H](C(=O)NCC(=O)N[C@@H](CO)C(=O)N[C@@H](CC(=O)O)C(=O)N[C@H](C(=O)N[C@@H](Cc1ccc(O)cc1)C(N)=O)[C@@H](C)O)C(C)C)[C@@H](C)O` [Peptide 5] (H-K([γGlu-γGlu-C20 diacid])CNTATCATQRLADFLRHSSPNFGAPLSSTNVGSDTY-NH2; disulfide 2-7), for which the EC50 in assay [1] (setting [6]) is 2.57 nM; in assay [1] (setting [7]), 2.58 nM. Moreover, the IC50 was 105 nM in assay [2] (setting [8]), 106 nM in assay [2] (setting [9]), 30.2 nM in assay [3] (setting [10]) and 30.2 nM in assay [3] (setting [11]).

Turning to `CC[C@H](C)[C@H](NC(=O)[C@@H]1CCCN1C(=O)CNC(=O)[C@H](Cc1ccccc1)NC(=O)[C@H](CC(N)=O)NC(=O)[C@@H]1CCCN1C(=O)[C@H](CO)NC(=O)[C@H](CO)NC(=O)[C@H](Cc1c[nH]cn1)NC(=O)[C@H](CCCNC(=N)N)NC(=O)[C@H](CC(C)C)NC(=O)[C@H](Cc1ccccc1)NC(=O)[C@H](CC(=O)O)NC(=O)[C@H](C)NC(=O)[C@H](CC(C)C)NC(=O)[C@H](CCCNC(=N)N)NC(=O)[C@H](CCC(N)=O)NC(=O)[C@@H](NC(=O)[C@H](C)NC(=O)[C@@H]1CSSC[C@H](NC(=O)[C@@H](N)CCCCNC(=O)CC[C@H](NC(=O)CC[C@H](NC(=O)CCCCCCCCCCCCCCCCCCC(=O)O)C(=O)O)C(=O)O)C(=O)N[C@@H](CC(N)=O)C(=O)N[C@@H]([C@@H](C)O)C(=O)N[C@@H](C)C(=O)N[C@@H]([C@@H](C)O)C(=O)N1)[C@@H](C)O)C(=O)N[C@@H](CC(C)C)C(=O)N[C@@H](CO)C(=O)N[C@@H](CO)C(=O)N[C@H](C(=O)N[C@@H](CC(N)=O)C(=O)N[C@H](C(=O)NCC(=O)N[C@@H](CO)C(=O)N[C@@H](CC(=O)O)C(=O)N[C@H](C(=O)N[C@@H](Cc1ccc(O)cc1)C(N)=O)[C@@H](C)O)C(C)C)[C@@H](C)O` [Peptide 3] (H-K([γGlu-γGlu-C20 diacid])CNTATCATQRLADFLRHSSPNFGPILSSTNVGSDTY-NH2; disulfide 2-7), the EC50 in assay [1] (setting [6]) is 3.02 nM; in assay [1] (setting [7]), 3 nM. In addition, the IC50 in assay [2] (setting [8]) is 355 nM; in assay [2] (setting [9]), 356 nM; in assay [3] (setting [10]) it was 74.1 nM; in assay [3] (setting [11]) it was 74.1 nM.

Consider `CC[C@H](C)[C@H](NC(=O)[C@H](C)NC(=O)CNC(=O)[C@H](Cc1ccccc1)NC(=O)[C@H](CC(N)=O)NC(=O)[C@@H]1CCCN1C(=O)[C@H](CO)NC(=O)[C@H](CO)NC(=O)[C@H](Cc1c[nH]cn1)NC(=O)[C@H](CCCNC(=N)N)NC(=O)[C@H](CC(C)C)NC(=O)[C@H](Cc1ccccc1)NC(=O)[C@H](CC(N)=O)NC(=O)[C@H](C)NC(=O)[C@H](CC(C)C)NC(=O)[C@H](CCCNC(=N)N)NC(=O)[C@H](CCC(N)=O)NC(=O)[C@@H](NC(=O)[C@H](C)NC(=O)[C@@H]1CSSC[C@H](NC(=O)[C@H](CCCCN)NC(=O)COCCOCCNC(=O)COCCOCCNC(=O)CC[C@H](NC(=O)CCCCCCCCCCCCCCCCCCC(=O)O)C(=O)O)C(=O)N[C@@H](CC(N)=O)C(=O)N[C@@H]([C@@H](C)O)C(=O)N[C@@H](C)C(=O)N[C@@H]([C@@H](C)O)C(=O)N1)[C@@H](C)O)C(=O)N1CCC[C@H]1C(=O)N[C@@H](CO)C(=O)N[C@@H](CO)C(=O)N[C@H](C(=O)N[C@@H](CC(N)=O)C(=O)N[C@H](C(=O)NCC(=O)N[C@@H](CO)C(=O)N[C@@H](CC(N)=O)C(=O)N[C@H](C(=O)N[C@@H](Cc1ccc(O)cc1)C(N)=O)[C@@H](C)O)C(C)C)[C@@H](C)O` [Peptide 10], for which the EC50 in assay [4] (Tables S12 and S14, read-out: rAMY3R pEC50 (converted)) is 1.78 nM; in assay [4] (transiently transfected BHK tk-ts 13 cells, FlashPlate, 30 min room temperature, 2% HSA, read-out: rAMY3R EC50) it was 1.79 nM; in assay [5] (Tables S12 and S14, read-out: rCTR pEC50 (converted)), 141 nM; in assay [5] (transiently transfected BHK tk-ts 13 cells, FlashPlate, 30 min room temperature, 2% HSA, read-out: rCTR EC50) it was 142 nM. Further, in assay [4] (ratio of cAMP EC50 values), the “ratio rCTR/rAMY3R” value is 79. Moreover, the “rCTR pIC50” value in assay [2] (setting [12]) turned out to be 6.46. Besides, the “hCTR pIC50” value in assay [3] (setting [12]) came out at 6.99.
